Patent US5340818A, “Methods and compositions for inhibiting tumor cell growth” (priority 1993, dated 1994)
Several values for one entry are separate records, joined by “and”; a condition that tells them apart may be missing. Equal entries are not always repeated. Where two headings read alike, the source gives them in different places. Each block holds one compound with its values, some of them ahead of it.

Experiments:
tumors = settings: literature; cited from earlier work
[1] = test system: RNA synthesis in HL-60 cells; test: Inhibition of [5-3H]Cyd incorporation into RNA of HL-60 cells; assay type: cell-based, human; settings: for inhibition at 30 µg/mL: Homo sapiens, HL-60, 0.5 h
Method: (§1) For the precursor incorporation studies, each compound (in 0.3% dimethylsulfoxide) was preincubated with HL-60 cells (a human promyelocytic leukemic cell line) 2.2×10^6 /ml, for 15 min prior to the addition of the labeled precursor (obtained from ICN Radiochemicals, Irvine, Calif.) and then incubated for 30 min. The precursors used for incorporation into DNA, RNA and protein were [^3 H-methyl]dThd (1 μCi, 0.15 nmole/ml), [5-^3 H]Cyd (5 μCi, 0.23 nmol/ml), and [2,3,4,5-^3 H]L-Leu (0.5 μCi, 0.004 nmol/ml), respectively. Incorporation of radioactivity in the absence of a plant compound and in the presence of dimethylsulfoxide was used as a control. The control values for incorporation into DNA, RNA and protein were 8,500, 5,600 and 1,700 cpm/10^6 cells, respectively. The incubation conditions and the procedures for isolating DNA, RNA and protein fractions have been previously described (Chou, T. -C., et al., Cancer Res., 43:3074-3079 (1983)) .
(§2) HL-60 cells were incubated with [5-^3 H]Cyd or [2,3,4,5-^3 H]L-Leu in the presence and absence of alkaloids (0.03 mg/ml) in order to find the effects of the alkaloid on the incorporation of labeled precursors into RNA or protein. […] Over 90% of RNA and protein biosynthesis were inhibited by compounds 11, 16, 17, 22, 28, 29and 30 (Table 1). […] In most cases, the amount required to inhibit precursor incorporation into DNA was less than that to inhibit precursor incorporation into RNA or protein (i.e. DNA synthesis is inhibited most potently).

HL-60 cells = test: HL-60 cell growth inhibition, 72 h; assay type: cell-based, human; settings: HL-60, 72 h; for IC50: Homo sapiens, read-out: Cell Growth Inhibition, IC50
Method: For growth inhibition studies, HL-60 cells (1.5×10^5 /ml) were grown in RPMI 1640 media (GIBCO, Grand Island, N.Y.) at 37° C. in humidified 5% CO2 for 72 h. Viable cells were determined using trypan blue exclusion and counted in a hemocytometer. The fractional inhibition for each compound concentration (0.0025-0.05 mg/ml in 0.1% dimethylsulfoxide) was analyzed with the median-effect plot using a computer program (Chou, T. -C and P. Talalay, Adv. Enzyme Regul., 22:27-55 (1984); Chou, J. and T. -C. thou, Dose-Effect analysis with microcomputers: Quantitation of ED50, LD50, synergism, antagonism, low-dose risk, receptor ligand binding and enzyme kinetics. A computer software disk for Apple II series or IBM-PC and manual. Elsevier Science Publishers, Elsevier-BioSoft, Cambridge, United Kingdom (1986)). The median-effect concentration (IC50) was determined automatically for three to five dose-effect levels. Cell growth in the absence of plant compound and in the presence of dimethylsulfoxide was used as a control. Dimethylsulfoxide alone inhibited cell growth 3.9%±1.5% during the 72 h incubation period. Those data with negative values represent activations.

L1210 leukemia = L1210 leukemia survival time evaluation in BDF1 mice; settings: for Day 6 AWC / MST / N/T (nine day survivors/total mice) / Survival Time, individual mice / % ILS (increase in lifespan): day 1, QDX4 ip; for % ILS (increase in lifespan): 25% or greater indicates activity; for antileukemic activity, in words: L1210, BDF mice, low doses, ip
[2] = test system: protein synthesis in HL-60 cells; test: Inhibition of [2,3,4,5-3H]L-Leu incorporation into protein of HL-60 cells; assay type: cell-based, human; settings: for inhibition at 30 µg/mL: Homo sapiens
Method: as §1, §2

[3] = test system: DNA synthesis in HL-60 cells; test: Inhibition of [3H-methyl]dThd incorporation into DNA of HL-60 cells; assay type: cell-based, human; settings: for inhibition at 30 µg/mL: Homo sapiens, HL-60, at 0.03 mg/mL, read-out: % Inhibition of Precursor Incorporation, DNA
Method: as §1, with “control.” for “control. The control values for incorporation into DNA, RNA and protein were 8,500, 5,600 and 1,700 cpm/10^6 cells, respectively. The incubation conditions and the procedures for isolating DNA, RNA and protein fractions have been previously described (Chou, T. -C., et al., Cancer Res., 43:3074-3079 (1983)) .”
Human promyelocytic cells (HL-60) were incubated with [^3 H-methyl]dTHDin the presence and absence of a plant alkaloid.

L1210/0 cells = test: Cross-resistance studies: growth inhibition of doxorubicin-sensitive L1210/0 cells; assay type: cell-based; settings: L1210/0 (doxorubicin sensitive)
L1210/Dx cells = test: Cross-resistance studies: growth inhibition of doxorubicin-resistant L1210/Dx cells; assay type: cell-based; settings: for (IC50) 0/(IC50) Dx: L1210/0 and L1210/Dx; for IC50: Mus musculus, L1210/Dx (doxorubicin resistant)
[4] = at 0.03 mg/mL, read-out: % Inhibition of Precursor Incorporation, RNA
[5] = HL-60, at 0.03 mg/mL, read-out: % Inhibition of Precursor Incorporation, Protein

SMILES: CN(C)CCOc1cc2c(c3c1c(=O)c1ccccc1n3C)C=CC(C)(C)O2 [Compound 2, O-(dimethylaminoethyl)noracronycine]
antitumor activity, in words (tumors): significant antitumor activity

SMILES: COc1cc(O)c2c(=O)c3cccc(OC)c3n(C)c2c1OC [Compound 17, 5-O-Methyl-citrusinine-I]
inhibition at 30 µg/mL [1, 4]: 96.4%
cell growth inhibition, in words (HL-60 cells): significant activity against leukemic cells in vitro
IC50 (HL-60 cells): 2.7 µg/mL and 8.6 µM
Day 6 AWC (L1210 leukemia; 6.25 mg/kg): +1.8 g
MST (L1210 leukemia; 6.25 mg/kg): 7.0
N/T (nine day survivors/total mice) (L1210 leukemia; 6.25 mg/kg): 0/2
Survival Time, individual mice (L1210 leukemia; 6.25 mg/kg): 7
% ILS (increase in lifespan) (L1210 leukemia; 6.25 mg/kg): 0%
Day 6 AWC (L1210 leukemia; 12.5 mg/kg): +1.5 g
MST (L1210 leukemia; 12.5 mg/kg): 7.0
N/T (nine day survivors/total mice) (L1210 leukemia; 12.5 mg/kg): 0/2
Survival Time, individual mice (L1210 leukemia; 12.5 mg/kg): 7
% ILS (increase in lifespan) (L1210 leukemia; 12.5 mg/kg): 0%
antileukemic activity, in words (L1210 leukemia): not active
inhibition at 30 µg/mL [2, 5]: 93%
inhibition at 30 µg/mL [3]: 93.4%

SMILES: CC1(C)C=Cc2c(cc(O)c3c(=O)c4cccc(O)c4[nH]c23)O1 [Compound 34, Atalaphyllidine]
inhibition at 30 µg/mL ([1]; read-out: % Inhibition of Precursor Incorporation, RNA, at 0.03 mg/mL): 94.8%
cell growth inhibition, in words (HL-60 cells): comparable activity
IC50 (HL-60 cells): 1.3 µg/mL and 4.2 µM
Day 6 AWC (L1210 leukemia; 6.25 mg/kg): +1.7 g
MST (L1210 leukemia; 6.25 mg/kg): 7.0
N/T (nine day survivors/total mice) (L1210 leukemia; 6.25 mg/kg): 0/2
Survival Time, individual mice (L1210 leukemia; 6.25 mg/kg): 7
% ILS (increase in lifespan) (L1210 leukemia; 6.25 mg/kg): 0%
Day 6 AWC (L1210 leukemia; 25 mg/kg): +1.5 g
MST (L1210 leukemia; 25 mg/kg): 7.5
N/T (nine day survivors/total mice) (L1210 leukemia; 25 mg/kg): 0/2
% ILS (increase in lifespan) (L1210 leukemia; 25 mg/kg): 7%
Survival Time, individual mice (L1210 leukemia; 25 mg/kg, listed as SK 32090): 7 and 8
antileukemic activity, in words (L1210 leukemia): evidence of antileukemic activity
inhibition at 30 µg/mL ([2]; HL-60, read-out: % Inhibition of Precursor Incorporation, Protein, at 0.03 mg/mL): 82.9%
inhibition at 30 µg/mL [3]: 78.9%

IC50 (HL-60 cells): > 40 µg/mL and > 111 µM
SMILES: CC(C)=CCc1c2c(c3[nH]c4ccccc4c(=O)c3c1O)C=CC(C)(C)O2 [Compound 36, Severifoline]
antitumor activity, in words (tumors): no antitumor activity
inhibition at 30 µg/mL [3]: 20%

SMILES: Cn1c2c(O)cccc2c(=O)c2c(O)cc3c(c21)C=CC(C)(C)O3 [Compound 37, 11-Hydroxy-noracronycine]
inhibition at 30 µg/mL [1, 4]: 96.6%
cell growth inhibition, in words (HL-60 cells): comparable activity
IC50 (HL-60 cells): 2.3 µg/mL and 7.1 µM
Day 6 AWC (L1210 leukemia; 6.25 mg/kg): +2.0 g
MST (L1210 leukemia; 6.25 mg/kg): 7.0
N/T (nine day survivors/total mice) (L1210 leukemia; 6.25 mg/kg): 0/2
Survival Time, individual mice (L1210 leukemia; 6.25 mg/kg): 7
% ILS (increase in lifespan) (L1210 leukemia; 6.25 mg/kg): 0%
Day 6 AWC (L1210 leukemia; 25 mg/kg): +1.8 g
MST (L1210 leukemia; 25 mg/kg): 7.0
N/T (nine day survivors/total mice) (L1210 leukemia; 25 mg/kg): 0/2
Survival Time, individual mice (L1210 leukemia; 25 mg/kg): 7
% ILS (increase in lifespan) (L1210 leukemia; 25 mg/kg): 0%
antileukemic activity, in words (L1210 leukemia): not active
inhibition at 30 µg/mL [2, 5]: 95.3%
inhibition at 30 µg/mL [3]: 98.6%

SMILES: C=C(C)C1CCC2(C)CC1c1c(cc3c(c1O)c(=O)c1cccc(O)c1n3C)O2 (centres unmarked) [Compound 50, Cycloglyco-foline]
inhibition of RNA biosynthesis, in words ([1]; HL-60, 0.03 mg/ml): The same results were obtained
inhibition at 30 µg/mL [1, 4]: 55.7%
cell growth inhibition, in words (HL-60 cells): better activity than that of acronycine
IC50 (HL-60 cells): 5.8 µg/mL and 14.8 µM
Day 6 AWC (L1210 leukemia; 12.5 mg/kg): +1.8 g
MST (L1210 leukemia; 12.5 mg/kg): 8.5
N/T (nine day survivors/total mice) (L1210 leukemia; 12.5 mg/kg): 0/2
% ILS (increase in lifespan) (L1210 leukemia; 12.5 mg/kg): 21%
Survival Time, individual mice (L1210 leukemia; 12.5 mg/kg, listed as Sk 32091): 8 and 9
inhibition of protein biosynthesis, in words ([2]; HL-60, 0.03 mg/ml): The same results were obtained
inhibition at 30 µg/mL [2, 5]: 92.1%
inhibition of DNA synthesis, in words ([3]; HL-60, 0.03 mg/ml): inhibited DNA synthesis significantly
inhibition at 30 µg/mL [3]: 98.7%

SMILES: COc1cccc2c1C(=O)c1c(O)c3c(c(O)c1C2=O)C[C@@](O)(C(=O)CO)C[C@@H]3O[C@H]1C[C@H](N)[C@H](O)[C@H](C)O1 [Doxorubicin]
IC50 (L1210/0 cells): 28 nM
(IC50) 0/(IC50) Dx (L1210/Dx cells): 26.1
IC50 (L1210/Dx cells): 730 nM

SMILES: COc1cc(NS(C)(=O)=O)ccc1Nc1c2ccccc2nc2ccccc12 [m-AMSA]
IC50 (L1210/0 cells): 0.1 to 1 nM
(IC50) 0/(IC50) Dx (L1210/Dx cells): 61-610
IC50 (L1210/Dx cells): 61 nM
